Reference: the supplement of paper PMC10883282
± gives the standard deviation of the averaged measurements.

Columns and labels:
Assay in all cases: relative viability vs DMSO control (72 h) (fraction); higher = more viable cells
A204 = system: A204
Method in brief: (§1)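 Serially diluted compound, 2.5 µl from source plates spanning 10 mM to 0.0002 mM, was added 24 h after sarcoma cell lines were seeded in 384-well plates at densities targeting 80–90% confluence. Plates then sat 72 h at 37 °C, 5% CO2, with 0.1% DMSO vehicle and a 5 µM positive control. Relative viability came from ATPLite as percent growth, averaged over up to triplicate wells, and was rescaled with 1 as full and 0 as none.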

G401 = system: G401
Method in brief: as §1

HS729 = system: HS729
Method in brief: as §1

KHOS-NP = system: KHOS-NP
Method in brief: as §1

MES-SA = system: MES-SA
Method in brief: as §1

RD = system: RD
Method in brief: as §1

SK-ES-1 = system: SK-ES-1
Method in brief: as §1

SK-LMS-1 = system: SK-LMS-1
Method in brief: as §1

SW684 = system: SW684
Method in brief: as §1

SW872 = system: SW872
Method in brief: as §1

SYO-1 = system: SYO-1
Method in brief: as §1

VA-ES-BJ = system: VA-ES-BJ
Method in brief: as §1

O=C(c1ccc(F)c(F)c1Nc1ccc(I)cc1F)N1CC(O)([C@@H]2CCCCN2)C1 [Cobimetinib]
Settings | relative viability
A204, 0.00017 µM | 1.1 ± 0.038
A204, 0.00051 µM | 1.11 ± 0.025
A204, 0.00152 µM | 1.12 ± 0.029
A204, 0.00457 µM | 1.11 ± 0.024
A204, 0.01372 µM | 1.079 ± 0.0085
A204, 0.04115 µM | 1.04 ± 0.015
A204, 0.1235 µM | 1.01 ± 0.027
A204, 0.3704 µM | 0.807 ± 0.073
A204, 1.111 µM | 0.616 ± 0.034
A204, 3.333 µM | 0.424 ± 0.037
A204, 10 µM | 0.0102 ± 0.00081
G401, 0.00017 µM | 0.99 ± 0.051
G401, 0.00051 µM | 1.03 ± 0.02
G401, 0.00152 µM | 0.993 ± 0.013
G401, 0.00457 µM | 0.99 ± 0.024
G401, 0.01372 µM | 0.951 ± 0.034
G401, 0.04115 µM | 0.896 ± 0.021
G401, 0.1235 µM | 0.786 ± 0.022
G401, 0.3704 µM | 0.643 ± 0.026
G401, 1.111 µM | 0.396 ± 0.019
G401, 3.333 µM | 0.0971 ± 0.007
G401, 10 µM | 0.0011 ± 0.001
HS729, 0.00017 µM | 0.9644 ± 0.0084
HS729, 0.00051 µM | 1 ± 0.053
HS729, 0.00152 µM | 0.97 ± 0.029
HS729, 0.00457 µM | 0.962 ± 0.058
HS729, 0.01372 µM | 0.915 ± 0.035
HS729, 0.04115 µM | 0.922 ± 0.031
HS729, 0.1235 µM | 0.876 ± 0.016
HS729, 0.3704 µM | 0.852 ± 0.018
HS729, 1.111 µM | 0.763 ± 0.014
HS729, 3.333 µM | 0.6553 ± 0.005
HS729, 10 µM | 0.241 ± 0.052
KHOS-NP, 0.00017 µM | 1.09 ± 0.026
KHOS-NP, 0.00051 µM | 1.097 ± 0.0056
KHOS-NP, 0.00152 µM | 1.085 ± 0.0066
KHOS-NP, 0.00457 µM | 1.081 ± 0.0044
KHOS-NP, 0.01372 µM | 1.08 ± 0.014
KHOS-NP, 0.04115 µM | 0.912 ± 0.042
KHOS-NP, 0.1235 µM | 0.438 ± 0.024
KHOS-NP, 0.3704 µM | 0.319 ± 0.012
KHOS-NP, 1.111 µM | 0.275 ± 0.012
KHOS-NP, 3.333 µM | 0.28 ± 0.013
KHOS-NP, 10 µM | 0.187 ± 0.0053
MES-SA, 0.00017 µM | 0.934 ± 0.05
MES-SA, 0.00051 µM | 0.948 ± 0.05
MES-SA, 0.00152 µM | 0.925 ± 0.027
MES-SA, 0.00457 µM | 0.899 ± 0.027
MES-SA, 0.01372 µM | 0.896 ± 0.038
MES-SA, 0.04115 µM | 0.824 ± 0.038
MES-SA, 0.1235 µM | 0.786 ± 0.019
MES-SA, 0.3704 µM | 0.752 ± 0.027
MES-SA, 1.111 µM | 0.721 ± 0.017
MES-SA, 3.333 µM | 0.6391 ± 0.0033
MES-SA, 10 µM | 0.0114 ± 0.001
RD, 0.00017 µM | 1.1 ± 0.017
RD, 0.00051 µM | 1.1 ± 0.025
RD, 0.00152 µM | 1.07 ± 0.038
RD, 0.00457 µM | 1.02 ± 0.047
RD, 0.01372 µM | 0.88 ± 0.035
RD, 0.04115 µM | 0.766 ± 0.025
RD, 0.1235 µM | 0.636 ± 0.0091
RD, 0.3704 µM | 0.539 ± 0.019
RD, 1.111 µM | 0.461 ± 0.075
RD, 3.333 µM | 0.346 ± 0.083
RD, 10 µM | 0.0053 ± 0.001
SK-ES-1, 0.00017 µM | 1.04 ± 0.073
SK-ES-1, 0.00051 µM | 1 ± 0.035
SK-ES-1, 0.00152 µM | 1.04 ± 0.021
SK-ES-1, 0.00457 µM | 1.03 ± 0.032
SK-ES-1, 0.01372 µM | 1.04 ± 0.037
SK-ES-1, 0.04115 µM | 1.01 ± 0.029
SK-ES-1, 0.1235 µM | 1.02 ± 0.06
SK-ES-1, 0.3704 µM | 0.982 ± 0.035
SK-ES-1, 1.111 µM | 0.923 ± 0.052
SK-ES-1, 3.333 µM | 0.842 ± 0.03
SK-ES-1, 10 µM | 0.0122 ± 0.00045
SK-LMS-1, 0.00017 µM | 1.06 ± 0.049
SK-LMS-1, 0.00051 µM | 1.09 ± 0.019
SK-LMS-1, 0.00152 µM | 1.05 ± 0.059
SK-LMS-1, 0.00457 µM | 1.02 ± 0.032
SK-LMS-1, 0.01372 µM | 0.989 ± 0.041
SK-LMS-1, 0.04115 µM | 0.767 ± 0.0095
SK-LMS-1, 0.1235 µM | 0.584 ± 0.011
SK-LMS-1, 0.3704 µM | 0.398 ± 0.02
SK-LMS-1, 1.111 µM | 0.299 ± 0.012
SK-LMS-1, 3.333 µM | 0.1728 ± 0.0017
SK-LMS-1, 10 µM | 0.0129 ± 0.0027
SW684, 0.00017 µM | 1.23 ± 0.051
SW684, 0.00051 µM | 1.15 ± 0.021
SW684, 0.00152 µM | 1.17 ± 0.051
SW684, 0.00457 µM | 1.2 ± 0.061
SW684, 0.01372 µM | 1.13 ± 0.045
SW684, 0.04115 µM | 1.063 ± 0.0065
SW684, 0.1235 µM | 0.941 ± 0.015
SW684, 0.3704 µM | 0.738 ± 0.022
SW684, 1.111 µM | 0.536 ± 0.013
SW684, 3.333 µM | 0.357 ± 0.016
SW684, 10 µM | -0.00433 ± 0.0021
SW872, 0.00017 µM | 1.06 ± 0.06
SW872, 0.00051 µM | 1.01 ± 0.03
SW872, 0.00152 µM | 0.923 ± 0.063
SW872, 0.00457 µM | 0.775 ± 0.049
SW872, 0.01372 µM | 0.67 ± 0.01
SW872, 0.04115 µM | 0.622 ± 0.024
SW872, 0.1235 µM | 0.606 ± 0.035
SW872, 0.3704 µM | 0.574 ± 0.018
SW872, 1.111 µM | 0.498 ± 0.016
SW872, 3.333 µM | 0.39 ± 0.035
SW872, 10 µM | 0.00283 ± 0.0013
SYO-1, 0.00017 µM | 0.985 ± 0.036
SYO-1, 0.00051 µM | 0.998 ± 0.049
SYO-1, 0.00152 µM | 0.964 ± 0.043
SYO-1, 0.00457 µM | 0.9431 ± 0.007
SYO-1, 0.01372 µM | 0.928 ± 0.019
SYO-1, 0.04115 µM | 0.907 ± 0.055
SYO-1, 0.1235 µM | 0.929 ± 0.053
SYO-1, 0.3704 µM | 0.84 ± 0.05
SYO-1, 1.111 µM | 0.719 ± 0.023
SYO-1, 3.333 µM | 0.566 ± 0.036
SYO-1, 10 µM | -0.0086 ± 0.0037
VA-ES-BJ, 0.00017 µM | 1.05 ± 0.032
VA-ES-BJ, 0.00051 µM | 1.07 ± 0.048
VA-ES-BJ, 0.00152 µM | 1.05 ± 0.027
VA-ES-BJ, 0.00457 µM | 1.02 ± 0.033
VA-ES-BJ, 0.01372 µM | 0.982 ± 0.043
VA-ES-BJ, 0.04115 µM | 0.906 ± 0.036
VA-ES-BJ, 0.1235 µM | 0.747 ± 0.15
VA-ES-BJ, 0.3704 µM | 0.638 ± 0.15
VA-ES-BJ, 1.111 µM | 0.567 ± 0.089
VA-ES-BJ, 3.333 µM | 0.451 ± 0.12
VA-ES-BJ, 10 µM | 0.209 ± 0.025
